# Laboratory results as given in article PMC11939361, “diAcCA, a Pro-Drug for Carnosic Acid That Activates the Nrf2 Transcriptional Pathway, Shows Efficacy in the 5xFAD Transgenic Mouse Model of Alzheimer’s Disease” (Antioxidants, 2025).
# Several values for one entry are separate records, joined by “and”; a condition that tells them apart may be missing. Equal values may be shown once. Entries after “also recorded” stand apart in the source; their conditions may differ. Read-outs that look alike come from different tables or passages of the source.
# Key:
# [1] = cited from earlier work
# [2] = Shelf life / stability of the compound over time; format: physicochemical; conditions: storage (CA: even if kept in the dark and cold)
# [3] = cited from earlier work; remark: listed apart in the source
# [4] = in vivo; for AUC%Extrap: mouse
# Method: (§1) We tested both CA and diAcCA compounds by oral gavage/PO at 10 mg/kg. Analysis was performed by LC-MS in the Scripps Florida Drug Development Core (Jupiter, FL, USA). The compounds were formulated in olive oil. CA went into the oil with minimal stirring, but diAcCA required longer stirring. Blood was collected in hematocrit tubes and centrifuged. […] Drug is therefore likely absorbed via enterocyte passage and through chylomicron absorbance, complicating the early time points of the PK curves.
# (§2) Therefore, we decided to pre-weigh the CA into a vial and, in the vivarium, rapidly dissolve the compound in DMSO and then add Tween80/saline. The compound was dosed within five minutes of being dissolved, and the final concentrations were 5% DMSO and 95% of a 5% Tween80 solution in saline. […] Oral clearance calculations assume 100% bioavailability.
# (§3) We also determined the stability and bioavailability of diAcCA compared to CA. For this purpose, individual mice were administered CA or diAcCA IV or via oral gavage/PO. For CA, the doses were 3 mg/kg for the IV route and 10 mg/kg for oral gavage/PO, and for diAcCA 10 mg/kg by oral gavage/PO.
# [5] = test system: hiPSC-derived microglia (hiMG); assay: hiMG transplanted into humanized mouse brain, inflammatory markers; format: in vivo, human
# Method: The next day, immunostaining was performed on brain sections after 3 washes in PBS and incubation in the appropriate secondary antibody solution on a shaker for 2 h at room temperature. Secondary antibodies included Alexa 488 (A11008, 1:500, goat anti-rabbit, Life Technologies, Carlsbad, CA, USA) and Alexa 555 (A21424, 1:500, goat anti-mouse, Life Technologies). The sections were again washed with PBS 3 times, mounted on Superfrost plus slides (12-550-15, Fisher Scientific, Waltham, MA, USA) and dried at room temperature. […] For each brain, 3–6 images were acquired for each individual marker using a confocal fluorescence microscope (Nikon Eclipse Ti2) (Figure 1, Figure 2 and Figure 3, Supplementary Figure S1). Post image processing, quantification was performed using Fiji ImageJ (1.54f). For the Iba1-stained slides, a mask was made of cells co-labeled for HuNu and Iba1, and then caspase 1 staining was measured. […] For quantification, NeuN, Synapsin I, and GFAP staining were compared between groups by mean fluorescence intensity (MFI), Iba1 and caspase-1 staining was compared by integrated density (ID), Aβ and pTau staining were compared by % area of plaques/aggregates, as previously described. […]
# in vivo = conditions: for AUC(0-inf): AUCINF_obs; for AUC(0-t): AUClast
# Method: as §1, §2, §3
# [6] = male, C57Bl/6, mouse, po, 10 mg/kg
# [7] = mouse, po, 10 mg/kg, Plasma concentration of carnosic acid
smiles,measurement,setting,value
"CC(C)c1cc2c(c(O)c1O)[C@@]1(C(=O)O)CCCC(C)(C)[C@@H]1CC2 [CA, carnosic acid]",brain levels as share of the plasma level at peak values,[1]; PO and IV routes,approximately 10%
same,"CA concentration in the brain, which is neuroprotective",[1],1 to 2 µM
same,CA plasma concentration that produces the neuroprotective brain level,[1],10 to 20 µM
same,shelf life / stability over time,[2],shelf life of only a couple of months
same,LD50,[3],7100 mg/kg
same,Calculated Concentration of carnosic acid in plasma,"[4]; C57Bl/6, mouse, po, 6 h",618 ng/mL
same,CL*F,[4]; [6],2.7
same,AUC%Extrap,"[4]; iv, 3 mg/kg",1.77%
same,AUC%Extrap,"[4]; po, 10 mg/kg",4.13%
same,inflammatory response (Iba1 and caspase-1 expression) of transplanted hiMG,"[5]; hiMG activated by α-synuclein/Aβ aggregates with or without cognate antibodies, pretreated with CA (2 µM), 2 weeks after transplantation",significantly prevented this inflammatory reaction; also recorded: prevented this effect
same,cleaved/activated caspase-1 integrated density (ID),"[5]; response to α-synuclein/Aβ aggregates in the presence of CA (2 µM), p = 0.0307",significant decrease
same,AUC(0-inf),"in vivo; male, C57Bl/6, mouse, iv, 3 mg/kg",15000 ng·h/mL
same,clearance,"in vivo; male, C57Bl/6, mouse, iv, 3 mg/kg, Cl_obs",3.3 mL/min/kg
same,MRT inf,"in vivo; male, C57Bl/6, mouse, iv, 3 mg/kg, MRTINF_obs",5.46 h
same,half-life,"in vivo; male, C57Bl/6, mouse, iv, 3 mg/kg, T1/2",13 h
same,AUC(0-inf),in vivo; [6],10700 ng·h/mL
same,bioavailability,"in vivo; male, C57Bl/6, mouse, po, 10 mg/kg, F%",16%
same,half-life,"in vivo; male, C57Bl/6, mouse, po, 10 mg/kg, T1/2",19.9 h
same,AUC(0-inf),"in vivo; mouse, iv, 3 mg/kg",20100 ng·h/mL
same,AUC(0-t),"in vivo; mouse, iv, 3 mg/kg",59.5 µM·h
same,half-life,"in vivo; mouse, iv, 3 mg/kg, t1/2",11.9 h
same,Tmax,"in vivo; mouse, iv, 3 mg/kg",0.14 h
same,Cmax,"in vivo; mouse, iv, 5 mg/kg, mean Cmax of CA in plasma",98.5 µM
same,half-life,"in vivo; mouse, iv, average half-life",11.9 h
same,half-life,"in vivo; mouse, iv, half-life",~12 h
same,AUC(0-inf),"in vivo; mouse, po, 10 mg/kg",9710 ng·h/mL
same,AUC(0-t),"in vivo; mouse, po, 10 mg/kg",28 µM·h
same,Cmax,"in vivo; mouse, po, 10 mg/kg, Cmax of CA in plasma",4.45 µM
same,concentration at 480 min,in vivo; [7],1 µM and 332 ng/mL
same,concentration at 4320 min,in vivo; [7],64.4 nM and 21.4 ng/mL
same,half-life,"in vivo; mouse, po, 10 mg/kg, average half-life",16.3 h
same,Cmax,"in vivo; mouse, po, 10 mg/kg, mean Cmax of CA",4.45 µM
same,half-life,"in vivo; mouse, po, 10 mg/kg, t1/2",16.3 h
same,Tmax,"in vivo; mouse, po, 10 mg/kg",1.5 h
